Test [1] relates to PC-12. The test can be described thus: Maximum recovery of NAD+ in hydrogen peroxide treated PC12 cells at 10 uM relative to control. Format: functional, Rattus norvegicus.
Test [2] relates to PC-12. The test can be described thus: Recovery of NAD+ in hydrogen peroxide treated PC12 cells at 1 uM relative to control. Format: functional, Rattus norvegicus.
Test [3] deals with PC-12. The test can be described thus: Maximum recovery of NAD+ in hydrogen peroxide treated PC12 cells at 30 uM relative to control. It is filed as functional, Rattus norvegicus.
The target in test [4] is Poly [ADP-ribose] polymerase 1 (Homo sapiens, UniProt P09874). The test can be described thus: Inhibition of human recombinant PARP1 in U251MG cells by CometAssay. Format: cell-based, U-251.
In test [5] the test system is PC-12. The test can be described thus: Maximum recovery of NAD+ in hydrogen peroxide treated PC12 cells at 3 uM relative to control. It is filed as functional, Rattus norvegicus.

Here are results for 31 compounds from ChEMBL document CHEMBL1138399, “Novel poly(ADP-ribose) polymerase-1 inhibitors” (Bioorg Med Chem Lett, 2007).

The structures appear in SMILES notation. pIC50: −log10 of the molar value.

Chain of Poly [ADP-ribose] polymerase 1 (P09874 whole entry): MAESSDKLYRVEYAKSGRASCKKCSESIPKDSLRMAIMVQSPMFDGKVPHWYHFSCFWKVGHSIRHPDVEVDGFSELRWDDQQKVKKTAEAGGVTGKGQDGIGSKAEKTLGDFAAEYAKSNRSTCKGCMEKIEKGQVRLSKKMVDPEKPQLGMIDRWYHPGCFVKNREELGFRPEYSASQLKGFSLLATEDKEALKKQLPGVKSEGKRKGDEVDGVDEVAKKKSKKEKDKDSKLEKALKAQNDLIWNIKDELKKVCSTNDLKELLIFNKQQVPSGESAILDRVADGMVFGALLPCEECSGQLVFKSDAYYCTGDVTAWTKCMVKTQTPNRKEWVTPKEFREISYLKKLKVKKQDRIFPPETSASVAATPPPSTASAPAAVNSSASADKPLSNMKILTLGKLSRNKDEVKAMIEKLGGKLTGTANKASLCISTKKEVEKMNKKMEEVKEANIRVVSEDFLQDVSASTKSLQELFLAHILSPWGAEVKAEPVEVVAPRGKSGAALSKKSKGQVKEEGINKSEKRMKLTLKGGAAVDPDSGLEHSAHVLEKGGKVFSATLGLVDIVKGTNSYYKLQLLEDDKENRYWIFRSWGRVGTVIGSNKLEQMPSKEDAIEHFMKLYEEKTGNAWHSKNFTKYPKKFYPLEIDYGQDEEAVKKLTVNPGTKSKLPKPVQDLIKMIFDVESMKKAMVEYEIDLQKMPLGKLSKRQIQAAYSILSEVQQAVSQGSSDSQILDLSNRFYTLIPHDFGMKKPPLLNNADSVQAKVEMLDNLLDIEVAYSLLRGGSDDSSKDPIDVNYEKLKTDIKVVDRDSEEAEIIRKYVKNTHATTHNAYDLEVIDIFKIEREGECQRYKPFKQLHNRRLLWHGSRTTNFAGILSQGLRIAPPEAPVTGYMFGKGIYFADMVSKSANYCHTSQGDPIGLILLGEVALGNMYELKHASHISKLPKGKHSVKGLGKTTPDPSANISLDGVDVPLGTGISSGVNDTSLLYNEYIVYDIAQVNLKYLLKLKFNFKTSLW

`Br.NCc1nc(-c2ccc3[nH]c4c5c(c6c(c4c3c2)C(=O)NC6=O)CCC5)cs1`: the results for the Activity in the test with PC-12 [1] and in the test with PC-12 [2] were 41% and 20%, respectively.
For the compound `O=C1NC(=O)c2c1c1c(c3[nH]c4ccc(-c5csc(CNC6O[C@H](CO)[C@@H](O)[C@H](O)[C@H]6O)n5)cc4c23)CCC1` (some centres not stated), the Activity in the test with PC-12 [3] and with PC-12 [2] was 0% throughout. For the same compound, the pIC50 in test [4] was 7.77.
For `O=C1NC(=O)c2c1c1c(c3[nH]c4ccc(-c5csc(-c6ccno6)n5)cc4c23)CCC1`, the Activity in the test with PC-12 [3] is listed as 27%; in the test with PC-12 [2], 11%. In test [4], the pIC50 was 7.18.
For `O=C(CBr)c1ccc2[nH]c3c4c(c5c(c3c2c1)C(=O)NC5=O)CCC4`, the Activity with PC-12 [3] is on record as 49%; in the test with PC-12 [2], 32%.
Regarding `CC(=O)Nc1nc(-c2ccc3[nH]c4c5c(c6c(c4c3c2)C(=O)NC6=O)CCC5)cs1`, the values for the Activity in the test with PC-12 [3] and with PC-12 [2] were 34% and 10%, respectively.
On to `CCCC(=O)NCc1nc(-c2ccc3[nH]c4c5c(c6c(c4c3c2)C(=O)NC6=O)CCC5)cs1`, for which the Activity with PC-12 [3] worked out at 29%; with PC-12 [2], 19%.
On the same counts, the results for `N=C(N)Nc1nc(-c2ccc3[nH]c4c5c(c6c(c4c3c2)C(=O)NC6=O)CCC5)cs1` are 53% and 19%.
For `CC(C)(C)C(=O)OCc1nc(-c2ccc3[nH]c4c5c(c6c(c4c3c2)C(=O)NC6=O)CCC5)cs1`, the Activity is 27% in the test on PC-12 [3] and 14% with PC-12 [2].
Turning to `NCc1ccc2[nH]c3c4c(c5c(c3c2c1)C(=O)NC5=O)CCC4`, the Activity in the test on PC-12 [3] was found to be 100%; in the test on PC-12 [2], 84%. Moreover, in test [4], the pIC50 is 7.74.
Regarding `Cc1nc(-c2ccc3[nH]c4c5c(c6c(c4c3c2)C(=O)NC6=O)CCC5)c(Br)s1`, the Activity is listed as 57% in the test with PC-12 [3] and 16% in the test on PC-12 [2].
On the same counts, the results for `CCC(=O)NCc1nc(-c2ccc3[nH]c4c5c(c6c(c4c3c2)C(=O)NC6=O)CCC5)cs1` are 20% and 16%.
As for `CC(=O)NCc1nc(-c2ccc3[nH]c4c5c(c6c(c4c3c2)C(=O)NC6=O)CCC5)cs1`, the Activity is 51% with PC-12 [3] and 20% in the test on PC-12 [2].
On the same counts, the results for `O=C1NC(=O)c2c1c1c(c3[nH]c4ccc(-c5csc(CNC(=O)C6CCCC6)n5)cc4c23)CCC1` are 29% and 21%.
For `CNc1nc(-c2ccc3[nH]c4c5c(c6c(c4c3c2)C(=O)NC6=O)CCC5)cs1` the same measures were 56% and 22%.
As for `CC(C)(C)OC(=O)NC(CCCc1nc(-c2ccc3[nH]c4c5c(c6c(c4c3c2)C(=O)NC6=O)CCC5)cs1)C(=O)OC(C)(C)C` (configuration not stated), the results for the Activity in the test with PC-12 [1] and in the test with PC-12 [2] were 27% and 17%, respectively. In test [4], the pIC50 is 7.34.
Consider `Nc1nc(-c2ccc3[nH]c4c5c(c6c(c4c3c2)C(=O)NC6=O)CCC5)cs1`, for which the Activity with PC-12 [3] amounted to 100%; in the test on PC-12 [2] it was 48%.
In the case of `O=C(NCc1nc(-c2ccc3[nH]c4c5c(c6c(c4c3c2)C(=O)NC6=O)CCC5)cs1)OCc1ccccc1`, the figures for the Activity in the test on PC-12 [3] and with PC-12 [2] were 46% and 17%, respectively.
As to `Cc1nc(-c2ccc3[nH]c4c5c(c6c(c4c3c2)C(=O)NC6=O)CCC5)cs1`, the values for the Activity with PC-12 [3] and in the test with PC-12 [2] were 63% and 19%, respectively.
For `CC(C)(C)S(=O)(=O)Cc1nc(-c2ccc3[nH]c4c5c(c6c(c4c3c2)C(=O)NC6=O)CCC5)cs1` the same measures were 51% and 33%.
With `CS(=O)(=O)NCc1nc(-c2ccc3[nH]c4c5c(c6c(c4c3c2)C(=O)NC6=O)CCC5)cs1`, the Activity in the test on PC-12 [3] worked out at 28%; with PC-12 [2], 22%. Besides, in test [4], the pIC50 was 7.74.
Regarding `CC(C)C(=O)NCc1nc(-c2ccc3[nH]c4c5c(c6c(c4c3c2)C(=O)NC6=O)CCC5)cs1`, the Activity in the test on PC-12 [3] came out at 33%; in the test on PC-12 [2], 10%.
With `CC(C)(C)OC(=O)Cc1nc(-c2ccc3[nH]c4c5c(c6c(c4c3c2)C(=O)NC6=O)CCC5)cs1`, the Activity with PC-12 [3] worked out at 49%; in the test on PC-12 [2], 20%.
`O=C1NC(=O)c2c1c1c(c3[nH]c4ccccc4c23)CCC1`: the Activity with PC-12 [2] is 30%.
Turning to `CC(C)CC(=O)NCc1nc(-c2ccc3[nH]c4c5c(c6c(c4c3c2)C(=O)NC6=O)CCC5)cs1`, the Activity with PC-12 [3] came to 30%; in the test on PC-12 [2], 13%.
In the case of `CC(=O)c1ccc2[nH]c3c4c(c5c(c3c2c1)C(=O)NC5=O)CCC4`, the Activity is 57% in the test on PC-12 [3] and 35% in the test on PC-12 [2].
For `NC(CCCc1nc(-c2ccc3[nH]c4c5c(c6c(c4c3c2)C(=O)NC6=O)CCC5)cs1)C(=O)O.O=C(O)C(F)(F)F` (configuration not stated), the figures for the Activity in the test with PC-12 [3] and in the test on PC-12 [2] were 47% and 7%, respectively. The pIC50 in test [4] is 7.66.
In the case of `CCNC(=O)NCc1nc(-c2ccc3[nH]c4c5c(c6c(c4c3c2)C(=O)NC6=O)CCC5)cs1`, the Activity in the test with PC-12 [1] was found to be 22%; in the test on PC-12 [2], 15%.
On to `CS(=O)(=O)Cc1nc(-c2ccc3[nH]c4c5c(c6c(c4c3c2)C(=O)NC6=O)CCC5)cs1`, for which the Activity in the test with PC-12 [3] is given as 62%; in the test with PC-12 [2], 16%.
As for `CCCCC(=O)NCc1nc(-c2ccc3[nH]c4c5c(c6c(c4c3c2)C(=O)NC6=O)CCC5)cs1`, the values for the Activity in the test with PC-12 [3] and in the test on PC-12 [2] were 34% and 15%, respectively.
As to `Cc1sc(N)nc1-c1ccc2[nH]c3c4c(c5c(c3c2c1)C(=O)NC5=O)CCC4`, the Activity in the test on PC-12 [5] worked out at 38%; with PC-12 [2], 37%.
Consider `O=C1NC(=O)c2c1c1c(c3[nH]c4ccc(-c5csc(CNC(=O)C6CC6)n5)cc4c23)CCC1`, for which the Activity is reported as 16% in the test with PC-12 [3] and 11% in the test on PC-12 [2].

As usually defined, the pIC50 is −log10 of the IC50, conventionally taken in molar units.
